Counter-ions that a name gives are not always drawn.
## O=C(NC[C@@H]1CC(c2ccc(-c3ccc(N4C[C@H](Cn5ccnn5)OC4=O)cc3F)cn2)=NO1)[C@@H]1CCCN1 (as salt: hydrochloride) [Example 20, N-{[(5S)-3-(5-{2-Fluoro-4-[(5R)-2-oxo-5-(1H-1,2,3-triazol-1-ylmethyl)-1,3-oxazolidin-3-yl]phenyl}pyridin-2-yl)-4,5-dihydroisoxazol-5-yl]methyl}-L-prolinamide hydrochloride]
  melting point: 246 to 249 °C

## N[C@@H](CCC(=O)O)C(=O)NC[C@@H]1CC(c2ccc(-c3ccc(N4C[C@H](Cn5ccnn5)OC4=O)cc3F)cn2)=NO1 (racemic) [Example 29, N^1-{[(5S)-3-(5-{2-Fluoro-4-[(SR)-2-oxo-5-(1H-1,2,3-triazol-1-ylmethyl)-1,3-oxazolidin-3-yl]phenyl}pyridin-2-yl)-4,5-dihydroisoxazol-5-yl]methyl}-L-α-glutamine]
  melting point: 215 to 217 °C

## O=C1O[C@@H](Cn2ccnn2)CN1c1ccc(-c2ccc(C3=NO[C@H](CN4CCS(=O)(=O)CC4)C3)nc2)c(F)c1 [Example 9, (5R)-3-[4-(6-{(5S)-5-[(1,1-Dioxidothiomorpholin-4-yl)methyl]-4,5-dihydroisoxazol-3-yl}pyridin-3-yl)-3-fluorophenyl]-5-(1H-1,2,3-triazol-1-ylmethyl)-1,3-oxazolidin-2-one]
  melting point: 200 to 203 °C

## C[C@H](N)C(=O)NC[C@@H]1CC(c2ccc(-c3ccc(N4C[C@H](Cn5ccnn5)OC4=O)cc3F)cn2)=NO1 (as salt: hydrochloride) [Example 22, N^1-{[(5S)-3-(5-{2-fluoro-4-[(5R)-2-oxo-5-(1H-1,2,3-triazol-1-ylmethyl)-1,3-oxazolidin-3-yl]phenyl}pyridin-2-yl)-4,5-dihydroisoxazol-5-yl]methyl}-L-alaninamide hydrochloride]
  melting point: 242 to 244 °C

## CN(CC(=O)OC(C)(C)C)C[C@@H]1CC(c2ccc(-c3ccc(N4C[C@H](Cn5ccnn5)OC4=O)cc3F)cn2)=NO1 [Example 18, tert-Butyl N-{[(5S)-3-(5-{2-fluoro-4-[(5R)-2-oxo-5-(1H-1,2,3-triazol-1-ylmethyl)-1,3-oxazolidin-3-yl]phenyl}pyridin-2-yl)-4,5-dihydroisoxazol-5-yl]methyl}-N-methylglycinate]
  melting point: 180 °C

## O=C1O[C@@H](Cn2ccnn2)CN1c1ccc(-c2ccc(C3=NO[C@H](CN4CCCCC4)C3)nc2)c(F)c1 (as salt: hydrochloride) [Example 13, (5R)-3-(3-Fluoro-4-{6-[(5S)-5-(piperidin-1-ylmethyl)-4,5-dihydroisoxazol-3-yl]pyridin-3-yl}phenyl)-5-(1H-1,2,3-triazol-1-ylmethyl)-1,3-oxazolidin-2-one]
  melting point: 211 to 215 °C

## O=C1O[C@@H](Cn2ccnn2)CN1c1ccc(-c2ccc(C3=NO[C@H](CN4CC=CCC4)C3)nc2)c(F)c1 (as salt: hydrochloride) [Example 14, (5R)-3-(4-{6-[(5S)-5-(3,6-Dihydropyridin-1(2H)-ylmethyl)-4,5-dihydroisoxazol-3-yl]pyridin-3-yl}-3-fluorophenyl)-5-(1H-1,2,3-triazol-1-ylmethyl)-1,3-oxazolidin-2-one]
  melting point: 250 to 255 °C

## CNC[C@@H]1CC(c2ccc(-c3ccc(N4C[C@H](Cn5ccnn5)OC4=O)cc3F)cn2)=NO1 [Example 2]
  melting point: 215 °C

## O=C1O[C@@H](Cn2ccnn2)CN1c1ccc(-c2ccc(C3=NO[C@H](CNCCO)C3)nc2)c(F)c1 [Example 5, (5R)-3-{3-Fluoro-4-[6-((5S)-5-{[(2-hydroxyethyl)amino]methyl}-4,5-dihydroisoxazol-3-yl)pyridin-3-yl]phenyl}-5-(1H-1,2,3-triazol-1-ylmethyl)-1,3-oxazolidin-2-one]
  melting point: 190 °C

## CN(CCO)C[C@@H]1CC(c2ccc(-c3ccc(N4C[C@H](Cn5ccnn5)OC4=O)cc3F)cn2)=NO1 [Example 10, (5R)-3-[3-Fluoro-4-[6-((5S)-5-{[(2-hydroxyethyl)(methyl)amino]methyl]-4,5-dihydroisoxazol-3-yl)pyridin-3-yl]phenyl}-5-(1H-1,2,3-triazol-1-ylmethyl)-1,3-oxazolidin-2-one]
  melting point: 153 to 156 °C

## Br.O=C1O[C@@H](Cn2ccnn2)CN1c1ccc(-c2ccc(C3=NO[C@H](CN4CCOCC4)C3)nc2)c(F)c1 [Example 3b]
  melting point: > 280 °C (dec.)

## O=C(O)CNCC(=O)NC[C@@H]1CC(c2ccc(-c3ccc(N4C[C@H](Cn5ccnn5)OC4=O)cc3F)cn2)=NO1 [Example 25, N-[2-({[(5S)-3-(5-{2-Fluoro-4-[(5R)-2-oxo-5-(1H-1,2,3-triazol-1-ylmethyl)-1,3-oxazolidin-3-yl]phenyl}pyridin-2-yl)-4,5-dihydroisoxazol-5-yl]methyl}amino)-2-oxoethyl]glycine]
  melting point: 200 to 210 °C

## O=C1O[C@@H](Cn2ccnn2)CN1c1ccc(-c2ccc(C3=NO[C@@H](CN4CCOCC4)C3)nc2)c(F)c1 [Example 11, (5R)-3-(3-Fluoro-4-{6-[(5R)-5-(morpholin-4-ylmethyl)-4,5-dihydroisoxazol-3-yl]pyridin-3-yl}phenyl)-5-(1H-1,2,3-triazol-1-ylmethyl)-1,3-oxazolidin-2-one]
  melting point: 239 to 245 °C

## CN(C)CC(=O)NC[C@@H]1CC(c2ccc(-c3ccc(N4C[C@H](Cn5ccnn5)OC4=O)cc3F)cn2)=NO1 (as salt: hydrochloride) [Example 17, N^1-{[(5S)-3-(5-{2-Fluoro-4-[(5R)-2-oxo-5-(1H-1,2,3-triazol-1-ylmethyl)-1,3-oxazolidin-3-yl]phenyl}pyridin-2-yl)-4,5-dihydroisoxazol-5-yl]methyl}-N^2,N^2-dimethylglycinamide hydrochloride]
  melting point: 202 to 204 °C

## Cl.O=C1O[C@@H](Cn2ccnn2)CN1c1ccc(-c2ccc(C3=NO[C@H](CN4CCOCC4)C3)nc2)c(F)c1
  melting point: 242 °C

## CCCCNC[C@@H]1CC(c2ccc(-c3ccc(N4C[C@H](Cn5ccnn5)OC4=O)cc3F)cn2)=NO1 [Example 6, (5R)-3-[4-(6-{(5S)-5-[(Butylamino)methyl]-4,5-dihydroisoxazol-3-yl}pyridin-3-yl)-3-fluorophenyl]-5-(1H-1,2,3-triazol-1-ylmethyl)-1,3-oxazolidin-2-one]
  melting point: 230 °C

## CN1CCN(C[C@@H]2CC(c3ccc(-c4ccc(N5C[C@H](Cn6ccnn6)OC5=O)cc4F)cn3)=NO2)CC1 [Example 4, (5R)-3-[3-Fluoro-4-(6-{(5S)-5-[(4-methylpiperazin-1-yl)methyl]-4,5-dihydroisoxazol-3-yl}pyridin-3-yl)phenyl]-5-(1H-1,2,3-triazol-1-ylmethyl)-1,3-oxazolidin-2-one]
  melting point: 218 °C

## Cl.O=C1O[C@@H](Cn2ccnn2)CN1c1ccc(-c2ccc(C3=NO[C@@H](CN4CCOCC4)C3)nc2)c(F)c1
  melting point: 239 to 245 °C

## CN(CC(=O)O)CC(=O)N(C)C[C@@H]1CC(c2ccc(-c3ccc(N4C[C@H](Cn5ccnn5)OC4=O)cc3F)cn2)=NO1 [Example 24, N-{2-[{[(5S)-3-(5-{2-Fluoro-4-[(5R)-2-oxo-5-(1H-1,2,3-triazol-1-ylmethyl)-1,3-oxazolidin-3-yl]phenyl}pyridin-2-yl)-4,5-dihydroisoxazol-5-yl]methyl}(methyl)amino]-2-oxoethyl}-N-methylglycine]
  melting point: 135 to 145 °C

## O=C1O[C@@H](Cn2ccnn2)CN1c1ccc(-c2ccc(C3=NO[C@H](CN4CCOCC4)C3)nc2)c(F)c1 (as salt: sulfonic acid salt) [Example 3c, (5R)-3-(3-Fluoro-4-{6-[(5S)-5-(morpholin-4-ylmethyl)-4,5-dihydroisoxazol-3-yl]pyridin-3-yl}phenyl)-5-(1H-1,2,3-triazol-1-ylmethyl)-1,3-oxazolidin-2-one, methanesulfonic acid salt]
  melting point: 165 to 168 °C

## CN(CC(=O)O)CC(=O)NC[C@@H]1CC(c2ccc(-c3ccc(N4C[C@H](Cn5ccnn5)OC4=O)cc3F)cn2)=NO1 [Example 27, N-[2-({[(5S)-3-(5-{2-Fluoro-4-[(5R)-2-oxo-5-(1H-1,2,3-triazol-1-ylmethyl)-1,3-oxazolidin-3-yl]phenyl}pyridin-2-yl)-4,5-dihydroisoxazol-5-yl]methyl}amino)-2-oxoethyl]-N-methylglycine]
  melting point: 185 to 188 °C

## CC(C)[C@@H](N)C(=O)NC[C@@H]1CC(c2ccc(-c3ccc(N4C[C@H](Cn5ccnn5)OC4=O)cc3F)cn2)=NO1 (as salt: hydrochloride) [Example 21, N^1-{[(5S)-3-(5-{2-Fluoro-4-[(5R)-2-oxo-5-(1H-1,2,3-triazol-1-ylmethyl)-1,3-oxazolidin-3-yl]phenyl}pyridin-2-yl)-4,5-dihydroisoxazol-5-yl]methyl}-D-valinamide hydrochloride]
  melting point: 130 to 134 °C

## O=C1O[C@@H](Cn2ccnn2)CN1c1ccc(-c2ccc(C3=NO[C@H](CN4CCCC4)C3)nc2)c(F)c1 (as salt: hydrochloride) [Example 12]
  melting point: 260 to 263 °C

## O=C1O[C@@H](Cn2ccnn2)CN1c1ccc(-c2ccc(C3=NO[C@H](CN4CCSCC4)C3)nc2)c(F)c1 [Example 7, (5R)-3-(3-Fluoro-4-{6-[(5S)-5-(thiomorpholin-4-ylmethyl)-4,5-dihydroisoxazol-3-yl]pyridin-3-yl}phenyl)-5-(1H-1,2,3-triazol-1-ylmethyl)-1,3-oxazolidin-2-one]
  melting point: 222 to 225 °C

## CN(C)CC(=O)N(C)C[C@@H]1CC(c2ccc(-c3ccc(N4C[C@H](Cn5ccnn5)OC4=O)cc3F)cn2)=NO1 (as salt: hydrochloride) [Example 23, N^1-{[(5S)-3-(5-{2-fluoro-4-[(5R)-2-oxo-5-(1H-1,2,3-triazol-1-ylmethyl)-1,3-oxazolidin-3-yl]phenyl}pyridin-2-yl)-4,5-dihydroisoxazol-5-yl]methyl}-N^1,N^2,N^2-trimethylglycinamide]
  melting point: 122 to 132 °C

## CN(C)C[C@@H]1CC(c2ccc(-c3ccc(N4C[C@H](Cn5ccnn5)OC4=O)cc3F)cn2)=NO1 [Example 1, (5R)-3-[4-(6-{(5S)-5-[(Dimethylamino)methyl]-4,5-dihydroisoxazol-3-yl}pyridin-3-yl)-3-fluorophenyl]-5-(1H-1,2,3-triazol-1-ylmethyl)-1,3-oxazolidin-2-one]
  melting point: 212 °C

From patent US20080064689A1, “3-[4-(6-Pyridin-3-Yl)-3-Phenyl] -5-(1H-1,2,3-Triazol-1-Ylmethyl)-1,3-Oxazolidin-2-Ones as Antibacterial Agents” (AstraZeneca AB, priority 2004, published 2008)
